IC50 data for seven compounds are collected here from patent US5821267A, “Amidino derivatives useful as nitric oxide synthase inhibitors” (priority 1996, dated 1998).

Molecules are shown by their SMILES. pIC50: −log10 of the molar value.

Assay [1] deals with T1, Mouse inducible nitric oxide synthase (miNOS) (Mus musculus, UniProt P29477).
T1 construct: was prepared from an extract of LPS-treated RAW 264.7 cells and partially purified by DEAE-Sepharose chromatography; endogenous in cells; host or cells: LPS-treated RAW 264.7 cells (extract, partially purified by DEAE-Sepharose)
T1 sequence (P29477 whole entry): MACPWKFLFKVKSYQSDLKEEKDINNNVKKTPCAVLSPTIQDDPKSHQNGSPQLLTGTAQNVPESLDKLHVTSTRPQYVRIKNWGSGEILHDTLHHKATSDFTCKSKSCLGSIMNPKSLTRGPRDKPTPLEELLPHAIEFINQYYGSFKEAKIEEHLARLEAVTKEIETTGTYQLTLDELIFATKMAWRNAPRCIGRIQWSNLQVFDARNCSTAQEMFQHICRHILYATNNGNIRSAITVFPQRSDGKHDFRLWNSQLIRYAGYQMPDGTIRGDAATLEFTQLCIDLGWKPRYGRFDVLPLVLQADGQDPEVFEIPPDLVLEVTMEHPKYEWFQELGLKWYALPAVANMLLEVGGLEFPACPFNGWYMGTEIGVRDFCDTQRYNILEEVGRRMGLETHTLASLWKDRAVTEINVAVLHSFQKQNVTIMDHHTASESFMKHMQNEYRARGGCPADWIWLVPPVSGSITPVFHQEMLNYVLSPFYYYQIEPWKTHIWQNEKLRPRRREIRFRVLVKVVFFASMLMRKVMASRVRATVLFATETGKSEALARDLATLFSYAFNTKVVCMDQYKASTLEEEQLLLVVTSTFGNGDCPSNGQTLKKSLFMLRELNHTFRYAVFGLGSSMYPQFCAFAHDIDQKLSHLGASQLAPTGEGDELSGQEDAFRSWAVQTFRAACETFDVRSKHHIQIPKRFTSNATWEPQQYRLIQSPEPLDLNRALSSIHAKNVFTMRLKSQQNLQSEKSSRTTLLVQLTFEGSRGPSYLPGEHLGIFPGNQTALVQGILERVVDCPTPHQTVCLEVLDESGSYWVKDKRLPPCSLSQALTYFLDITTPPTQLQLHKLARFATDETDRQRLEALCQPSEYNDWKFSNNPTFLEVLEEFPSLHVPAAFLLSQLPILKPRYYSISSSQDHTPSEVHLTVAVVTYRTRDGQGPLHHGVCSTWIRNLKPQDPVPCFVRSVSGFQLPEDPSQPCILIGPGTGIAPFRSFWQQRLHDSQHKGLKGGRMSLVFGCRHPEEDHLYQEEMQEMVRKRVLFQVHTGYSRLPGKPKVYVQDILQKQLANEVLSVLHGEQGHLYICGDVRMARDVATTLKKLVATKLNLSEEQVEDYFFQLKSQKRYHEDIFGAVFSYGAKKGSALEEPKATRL
The assay is described as follows: Citrulline Assay for Nitric Oxide Synthase, mouse inducible NOS. The following applies: mouse iNOS; 30 μM L-arginine, 37° C., 15 minutes. The format is biochemical.
Method: Nitric oxide synthase activity was measured by monitoring the conversion of [3H]-arginine to [3H]-citrulline. Mouse inducible nitric oxide synthase (miNOS) was prepared from an extract of LPS-treated RAW 264.7 cells and partially purified by DEAE-Sepharose chromatography. […] Enzyme and inhibitors were incubated at 37° C. for 15 minutes in a reaction volume of 100 μL with the following components added to start the reaction: 50 mM Tris (pH 7.6), 1 mg/ml bovine serum albumin, 1 mM DTT, 2 mM CaCl2, 10 μM FAD, 10 μM tetrahydrobiopterin, 30 μM L-arginine containing L-[2,3-3H]-arginine at 300 cpm/pmole and 1 mM NADPH. […] The reaction was terminated by addition of cold stop buffer containing 10 mM EGTA, 100 mM HEPES, pH 5.5 and 1 mM citrulline. [3H]-Citrulline was separated by chromatography on Dowex 50W X-8 cation exchange resin and radioactivity determined with a liquid scintillation counter.

The test system of assay [2] is intracellular iNOS in RAW 264.7 cells. The assay is described as follows: Raw Cell Nitrite Assay. It counts as cell-based. Conditions: Mus musculus, RAW264.7, LPS-induced RAW 264.7 cells, 30 μM L-arginine, 1 h at 37° C. The method, then:
RAW 264.7 cells are plated to confluency on a 96-well tissue culture plate grown overnight (17 h) in the presence of LPS to induce NOS. A row of 3-6 wells were left untreated and served as controls for subtraction of nonspecific background. The media was removed from each well and the cells are washed twice with Krebs-Ringers-Hepes (25 mM, pH 7.4) with 2 mg/ml glucose. The cells are then placed on ice and incubated with 50 μL of buffer containing L-arginine (30 μM) +/- inhibitors for 1 h. The assay is initiated by warming the plate to 37° C. in a water bath for 1 h. Production of nitrite by intracellular iNOS is linear with time. To terminate the cellular assay, the plate of cells is placed on ice and the nitrite-containing buffer removed and analyzed for nitrite using a previously published fluorescent determination for nitrite. All values are the average of triplicate wells and are compared to a background-subtracted induced set of cells (100% value).

Assay [3] addresses T2, Rat brain constitutive nitric oxide synthase (rnNOS) (Rattus norvegicus, UniProt P29476).
T2 construct: an extract of rat cerebellum and partially purified by DEAE-Sepharose chromatography; from tissue; host or cells: rat cerebellum (extract, partially purified by DEAE-Sepharose)
Kind of assay: Citrulline Assay for Nitric Oxide Synthase, rat brain constitutive NOS. The following applies: rat brain cNOS; 50 nM calmodulin, 30 μM L-arginine, 37° C., 15 minutes. The format is biochemical. The method, then: Nitric oxide synthase activity was measured by monitoring the conversion of [3H]-arginine to [3H]-citrulline. Mouse inducible nitric oxide synthase (miNOS) was prepared from an extract of LPS-treated RAW 264.7 cells and partially purified by DEAE-Sepharose chromatography. Rat brain constitutive nitric oxide synthase (rnNOS) was preparedfrom an extract of rat cerebellum and partially purified by DEAE-Sepharose chromatography. Enzyme and inhibitors were incubated at 37° C. for 15 minutes in a reaction volume of 100 μL with the following components added to start the reaction: 50 mM Tris (pH 7.6), 1 mg/ml bovine serum albumin, 1 mM DTT, 2 mM CaCl2, 10 μM FAD, 10 μM tetrahydrobiopterin, 30 μM L-arginine containing L-[2,3-3H]-arginine at 300 cpm/pmole and 1 mM NADPH. For constitutive NOS, 50 nM calmodulin was also added. The reaction was terminated by addition of cold stop buffer containing 10 mM EGTA, 100 mM HEPES, pH 5.5 and 1 mM citrulline. [3H]-Citrulline was separated by chromatography on Dowex 50W X-8 cation exchange resin and radioactivity determined with a liquid scintillation counter.

For orientation: pIC50 means the negative decadic logarithm of the IC50, by convention in mol/L. High values mean a small IC50, low ones a large IC50.

On to `N=C(N)C1CC1` [Example 2, Cyclopropylcarbamidine], for which the pIC50 in assay [1] was 5.64; in assay [2], 4.34; in assay [3], 5.00.
As to `CC(C)C(=N)N` [Example 3, Isopropylcarbamidine], the values for the negative-log IC50 (pIC50) in assay [1] and in assay [3] were 4.57 and 4.51, respectively.
The like results for `CCCC(=N)N` [Example 4, 1-Propylcarbamidine] were, in that order, 5.70 and 5.14.
Turning to `CCC(=N)N` [Example 5, Ethylcarbamidine], the values for the pIC50 in assay [1] and in assay [3] were 4.80 and 4.36, respectively.
On to `N=C(N)c1cccs1` [Example 8, 2-Amidinothiophene], for which the pIC50 in assay [1] was 6.00; in assay [2], 5.15; in assay [3], 5.89.
As to `N=C(N)c1ccco1` [Example 9, 2-Amidinofuran], the pIC50 in assay [1] is 5.52; in assay [2], 3.80; in assay [3], 5.52.
As for `CSCC(=N)N` [Example 11], the pIC50 in assay [1] was 5.70; in assay [2], 4.22; in assay [3], 5.15.
